According to PubChem BioAssay (NCI):
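Values below derive from 48-hour exposures of cells grown in 96-well plates, with endpoints linearly interpolated between the two concentrations bracketing the appropriate inhibition level. Abbreviation: GI50, concentration required for 50% inhibition of growth. TGI: concentration producing complete growth inhibition.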

Tests used:
Experiment in all cases: DTP human tumour cell line panel, 48 h
[1] = tested on: DU-145 prostate
[2] = tested on: KM12 colon
[3] = tested on: PC-3 prostate
[4] = tested on: SNB-19 CNS
[5] = tested on: SN12C renal
[6] = tested on: SF-539 CNS
[7] = tested on: A549 NSCLC
[8] = tested on: CCRF-CEM leukemia
[9] = tested on: NCI-H226 lung
[10] = tested on: DLD-1 colon
[11] = tested on: XF 498 CNS

| Structure (SMILES) | TGI [1] [µM] | TGI [2] [µM] | TGI [3] [µM] | TGI [4] [µM] | TGI [5] [µM] | TGI [6] [µM] | TGI [7] [µM] | TGI [8] [µM] | TGI [9] [µM] | TGI [10] [µM] | TGI [11] [µM] | GI50 [3] [µM] |
| --- | --- | --- | --- | --- | --- | --- | --- | --- | --- | --- | --- | --- |
| Cc1cc2nc3ccccc3n2c2nc(N)ccc12 | > 100 | > 100 | > 100 | > 100 | > 100 | 51.6 | > 100 | > 100 | 84.9 | – | – | – |
| COC(=O)CCNC(=O)OCc1ccccc1 | > 100 | > 100 | > 100 | > 100 | > 100 | > 100 | > 100 | > 100 | > 100 | – | – | – |
| O=C1/C(=C/c2ccccc2[N+](=O)[O-])N=C(c2ccccc2)N1c1nc2ccccc2s1 | 47.6 | 43.5 | > 100 | > 100 | 64.3 | 81.3 | > 100 | 0.681 | > 100 | – | – | – |
| COc1ccccc1/C=C/C1=NN(c2cccc(S(=O)(=O)O)c2)C2(C1)C(Cl)C(=O)N2c1nc2ccccc2s1 (stereo unspecified) | > 100 | > 100 | > 100 | > 100 | > 100 | > 100 | > 100 | 33.1 | > 100 | – | – | – |
| Cn1c2ccccc2c(=O)c2c(O)cc3c(c21)C=CC(C)(C)O3 | – | > 25 | – | > 25 | > 25 | > 25 | > 25 | > 25 | > 25 | > 25 | > 25 | – |
| O=C(c1ccccc1)N1CCC(CC2(c3cc4ccccc4[nH]3)OCCO2)CC1 | > 100 | > 100 | > 100 | > 100 | > 100 | > 100 | > 100 | > 100 | > 100 | – | – | – |
| Cc1ccc2c(=O)cc(-c3ccc4ccccc4c3)[nH]c2n1 | > 100 | 65.4 | 9.61 | > 100 | > 100 | 54.1 | > 100 | 14.6 | 98.4 | – | – | 2.62 |
| CCOC(=O)c1c(NC(=S)Nc2ccc(Cl)cc2)sc2c1CCN(C)C2 | > 100 | > 100 | > 100 | > 100 | > 100 | > 100 | > 100 | > 100 | > 100 | – | – | – |
| COc1nc(N)c(NC(C)=O)c(=O)n1C | – | > 100 | – | > 100 | > 100 | > 100 | > 100 | > 100 | – | > 100 | > 100 | – |
| CCOC(=O)NC(Nc1ccc(F)cc1)(C(=O)OCC)C(F)(F)F (stereo unspecified) | > 100 | > 100 | > 100 | > 100 | > 100 | > 100 | > 100 | > 23.9 | > 100 | – | – | – |
| O=[N+]([O-])c1ccc(-n2nc3ccc4c(no[n+]4[O-])c3n2)cc1 | > 100 | > 100 | > 100 | > 100 | > 100 | > 100 | > 100 | > 100 | > 100 | – | – | – |
| OC(CN(CCCl)CCCl)C(O)C(O)C(O)CN(CCCl)CCCl (stereo unspecified) | > 100 | > 100 | > 100 | > 100 | > 100 | > 100 | > 100 | > 100 | > 100 | – | – | – |
| CC(C)=CCCC(C)CCOS(=O)C(F)(F)F (stereo unspecified) | > 100 | > 100 | 45.3 | 78 | 41.7 | > 100 | 72.1 | > 100 | 41.4 | – | – | – |
| O=C1NN(Cc2ccccc2)C(=O)N2CCC[C@@H]12 | > 100 | > 100 | > 100 | > 100 | > 100 | > 100 | > 100 | > 100 | > 100 | – | – | – |
